According to the NIST ThermoML archive (doi:10.1016/j.jct.2019.03.023):
Values joined by “and” are separate entries in the source; they are usually repeats but may differ in a detail not shown here. Identical values can stand only once. ± gives the expanded uncertainty stated by the source.

Assay: molar heat capacity at constant volume
Details: Vacuum adiabatic calorimetry

CC(C)O [propan-2-ol]
Fluid (supercritical or subcritical phases)
Details | molar heat capacity at constant volume
314.29 K, Mass density=329.2 kg/m3 | 177.46 ± 5.3 J/K/mol
314.52 K, Mass density=329.2 kg/m3 | 182.81 ± 5.5 J/K/mol
314.8 K, Mass density=329.2 kg/m3 | 184.67 ± 5.5 J/K/mol
315.05 K, Mass density=329.2 kg/m3 | 181.49 ± 5.5 J/K/mol
315.3 K, Mass density=329.2 kg/m3 | 177.88 ± 5.3 J/K/mol
315.42 K, Mass density=329.2 kg/m3 | 176.26 ± 5.3 J/K/mol
315.61 K, Mass density=329.2 kg/m3 | 174.88 ± 5.2 J/K/mol
315.8 K, Mass density=329.2 kg/m3 | 178.6 ± 5.3 J/K/mol
317.44 K, Mass density=697.69 kg/m3 | 170.85 ± 5.1 J/K/mol
317.57 K, Mass density=697.69 kg/m3 | 172.41 ± 5.2 J/K/mol
317.7 K, Mass density=697.69 kg/m3 | 172.71 ± 5.2 J/K/mol
317.95 K, Mass density=697.69 kg/m3 | 168.15 ± 5 J/K/mol
318.07 K, Mass density=697.69 kg/m3 | 168.15 ± 5 J/K/mol
318.2 K, Mass density=697.69 kg/m3 | 171.69 ± 5.2 J/K/mol
318.32 K, Mass density=697.69 kg/m3 | 171.33 ± 5.2 J/K/mol
318.45 K, Mass density=697.69 kg/m3 | 173.98 ± 5.2 J/K/mol
318.57 K, Mass density=697.69 kg/m3 | 170.25 ± 5.1 J/K/mol
318.7 K, Mass density=697.69 kg/m3 | 175.24 ± 5.3 J/K/mol
331.87 K, Mass density=697.69 kg/m3 | 192 ± 5.8 J/K/mol
332.06 K, Mass density=697.69 kg/m3 | 191.34 ± 5.8 J/K/mol
332.12 K, Mass density=697.69 kg/m3 | 189.48 ± 5.7 J/K/mol
332.24 K, Mass density=697.69 kg/m3 | 188.82 ± 5.6 J/K/mol
332.36 K, Mass density=697.69 kg/m3 | 187.74 ± 5.6 J/K/mol
332.48 K, Mass density=697.69 kg/m3 | 189.96 ± 5.7 J/K/mol
332.6 K, Mass density=697.69 kg/m3 | 190.26 ± 5.7 J/K/mol
332.72 K, Mass density=697.69 kg/m3 | 187.74 ± 5.6 J/K/mol
332.85 K, Mass density=697.69 kg/m3 | 192.36 ± 5.8 J/K/mol
333.03 K, Mass density=697.69 kg/m3 | 188.7 ± 5.6 J/K/mol
340.8 K, Mass density=697.69 kg/m3 | 195.19 ± 5.9 J/K/mol
340.92 K, Mass density=697.69 kg/m3 | 192.6 ± 5.8 J/K/mol
341.04 K, Mass density=697.69 kg/m3 | 196.99 ± 5.9 J/K/mol
341.16 K, Mass density=697.69 kg/m3 | 193.33 ± 5.8 J/K/mol
341.28 K, Mass density=697.69 kg/m3 | 197.83 ± 5.9 J/K/mol
341.4 K, Mass density=697.69 kg/m3 | 196.15 ± 5.9 J/K/mol
341.52 K, Mass density=697.69 kg/m3 | 194.89 ± 5.8 J/K/mol
341.64 K, Mass density=697.69 kg/m3 | 195.13 ± 5.9 J/K/mol
341.76 K, Mass density=697.69 kg/m3 | 196.21 ± 5.9 J/K/mol
341.91 K, Mass density=329.2 kg/m3 | 203.12 ± 6.1 J/K/mol
342.08 K, Mass density=329.2 kg/m3 | 202.22 ± 6.1 J/K/mol
342.19 K, Mass density=329.2 kg/m3 | 203.54 ± 6.1 J/K/mol
342.32 K, Mass density=329.2 kg/m3 | 207.27 ± 6.2 J/K/mol
342.49 K, Mass density=329.2 kg/m3 | 201.32 ± 6.1 J/K/mol
342.67 K, Mass density=329.2 kg/m3 | 203.72 ± 6.1 J/K/mol
342.79 K, Mass density=329.2 kg/m3 | 202.76 ± 6.1 J/K/mol
342.91 K, Mass density=329.2 kg/m3 | 201.62 ± 6.1 J/K/mol
343.03 K, Mass density=329.2 kg/m3 | 204.08 ± 6.1 J/K/mol
355.67 K, Mass density=697.69 kg/m3 | 207.33 ± 6.2 J/K/mol
355.78 K, Mass density=697.69 kg/m3 | 211.29 ± 6.4 J/K/mol
355.9 K, Mass density=697.69 kg/m3 | 211.9 ± 6.4 J/K/mol
356.02 K, Mass density=697.69 kg/m3 | 209.49 ± 6.3 J/K/mol
356.13 K, Mass density=697.69 kg/m3 | 211.11 ± 6.4 J/K/mol
356.25 K, Mass density=697.69 kg/m3 | 212.68 ± 6.4 J/K/mol
356.37 K, Mass density=697.69 kg/m3 | 211.77 ± 6.4 J/K/mol
356.48 K, Mass density=697.69 kg/m3 | 211.96 ± 6.4 J/K/mol
369.05 K, Mass density=329.2 kg/m3 | 225.9 ± 6.8 J/K/mol
369.16 K, Mass density=329.2 kg/m3 | 220.01 ± 6.6 J/K/mol
369.28 K, Mass density=329.2 kg/m3 | 231.31 ± 7 J/K/mol
369.39 K, Mass density=329.2 kg/m3 | 222.83 ± 6.7 J/K/mol
369.5 K, Mass density=329.2 kg/m3 | 225.96 ± 6.8 J/K/mol
369.67 K, Mass density=329.2 kg/m3 | 223.55 ± 6.7 J/K/mol
369.84 K, Mass density=329.2 kg/m3 | 221.75 ± 6.7 J/K/mol
369.96 K, Mass density=329.2 kg/m3 | 221.03 ± 6.6 J/K/mol
370.07 K, Mass density=329.2 kg/m3 | 219.47 ± 6.6 J/K/mol
370.24 K, Mass density=697.69 kg/m3 | 222.11 ± 6.7 J/K/mol
370.36 K, Mass density=697.69 kg/m3 | 222.41 ± 6.7 J/K/mol
370.47 K, Mass density=697.69 kg/m3 | 220.43 ± 6.6 J/K/mol
370.58 K, Mass density=697.69 kg/m3 | 219.77 ± 6.6 J/K/mol
370.7 K, Mass density=697.69 kg/m3 | 222.05 ± 6.7 J/K/mol
370.81 K, Mass density=697.69 kg/m3 | 222.29 ± 6.7 J/K/mol
370.92 K, Mass density=697.69 kg/m3 | 220.61 ± 6.6 J/K/mol
371.04 K, Mass density=697.69 kg/m3 | 221.57 ± 6.7 J/K/mol
378.45 K, Mass density=697.69 kg/m3 | 221.99 ± 6.7 J/K/mol
378.57 K, Mass density=697.69 kg/m3 | 220.67 ± 6.6 J/K/mol
378.68 K, Mass density=697.69 kg/m3 | 223.19 ± 6.7 J/K/mol
378.79 K, Mass density=697.69 kg/m3 | 223.37 ± 6.7 J/K/mol
378.9 K, Mass density=697.69 kg/m3 | 220.97 ± 6.6 J/K/mol
379.01 K, Mass density=697.69 kg/m3 | 222.41 ± 6.7 J/K/mol
379.24 K, Mass density=697.69 kg/m3 | 222.71 ± 6.7 J/K/mol
379.35 K, Mass density=697.69 kg/m3 | 221.33 ± 6.7 J/K/mol
379.46 K, Mass density=697.69 kg/m3 | 221.99 ± 6.7 J/K/mol
379.57 K, Mass density=697.69 kg/m3 | 220.55 ± 6.6 J/K/mol
379.68 K, Mass density=697.69 kg/m3 | 222.53 ± 6.7 J/K/mol
379.79 K, Mass density=697.69 kg/m3 | 221.81 ± 6.7 J/K/mol
379.9 K, Mass density=697.69 kg/m3 | 222.53 ± 6.7 J/K/mol
380.02 K, Mass density=697.69 kg/m3 | 224.03 ± 6.7 J/K/mol
380.13 K, Mass density=697.69 kg/m3 | 223.07 ± 6.7 J/K/mol
380.24 K, Mass density=697.69 kg/m3 | 222.05 ± 6.7 J/K/mol
380.35 K, Mass density=697.69 kg/m3 | 223.97 ± 6.7 J/K/mol and 182.81 ± 5.5 J/K/mol
380.42 K, Mass density=697.69 kg/m3 | 185.51 ± 5.6 J/K/mol
380.56 K, Mass density=697.69 kg/m3 | 185.69 ± 5.6 J/K/mol
380.68 K, Mass density=697.69 kg/m3 | 187.44 ± 5.6 J/K/mol

Details | molar heat capacity at constant volume [J/K/mol]
380.35 K, Liquid | 182.81 ± 5.5
